Measurements as given in publication PMC9649518, “Knockout of ABC transporters by CRISPR/Cas9 contributes to reliable and accurate transporter substrate identification for drug discovery” (Frontiers in Pharmacology, 2022).
Each block holds one compound with its values, some of them ahead of it.

How the values were obtained:
Caco^BCRP−/− cells [1] = system: Caco^BCRP−/− cells
Method: (§4) For MRP2, the nonfluorescent compound CDCFDA was used as the probe substrate. […] After treatment, samples were transferred to black-walled 96-well assay plates. A standard curve of 2-fold serial dilution from 10 µM CDCF was generated. The CDCF concentration was measured based on the fluorescence in a microplate fluorescence reader (Tecan, Switzerland) set at 485 nm and 530 nm for the excitation and emission wavelengths, respectively.

[2] = system: Caco^MRP2−/−BCRP−/− cells
Method: as §4

BCRP transporter = system: BCRP transporter; parameters: method as in Mease et al., 2012; settings: 1 µM inhibitor; Caco-2; ref Mease et al., 2012; cited from earlier work
P-gp = system: P-gp; parameters: method as in Mease et al., 2012; settings: 10 µM inhibitor; Caco-2; ref Mease et al., 2012; cited from earlier work
[3] = Bidirectional transport assay across MRP2 KO Caco-2 monolayers; settings: human
Method: as §4

Caco^BCRP−/− cells [4] = assay: Bidirectional transport assay across BCRP KO Caco-2 monolayers; settings: Caco^BCRP−/−; 5 μM substrate; n = 3
Method: as §4

[5] = as above; settings: human
Method: as §4

[6] = Bidirectional transport assay across P-gp KO Caco-2 monolayers; settings: human, pH 7.4
[7] = Bidirectional transport assay across Caco-2 WT monolayers; settings: human
Method: as §4

[8] = Bidirectional transport assay across P-gp/BCRP double KO Caco-2 monolayers; settings: human, pH 7.4
Method: as §4

[9] = target: T1, P-gp, BCRP, and MRP2 efflux transporters (Homo sapiens, UniProt Q92887); assay: Transporter substrate identification with the panel of WT and KO Caco-2 cells; type: in vitro ADME; settings: 5 μM
T1 construct: endogenous in cells; host or cells: Caco-2 WT and CRISPR/Cas9 transporter-knockout Caco-2 clones
T1 sequence (Q92887 whole entry): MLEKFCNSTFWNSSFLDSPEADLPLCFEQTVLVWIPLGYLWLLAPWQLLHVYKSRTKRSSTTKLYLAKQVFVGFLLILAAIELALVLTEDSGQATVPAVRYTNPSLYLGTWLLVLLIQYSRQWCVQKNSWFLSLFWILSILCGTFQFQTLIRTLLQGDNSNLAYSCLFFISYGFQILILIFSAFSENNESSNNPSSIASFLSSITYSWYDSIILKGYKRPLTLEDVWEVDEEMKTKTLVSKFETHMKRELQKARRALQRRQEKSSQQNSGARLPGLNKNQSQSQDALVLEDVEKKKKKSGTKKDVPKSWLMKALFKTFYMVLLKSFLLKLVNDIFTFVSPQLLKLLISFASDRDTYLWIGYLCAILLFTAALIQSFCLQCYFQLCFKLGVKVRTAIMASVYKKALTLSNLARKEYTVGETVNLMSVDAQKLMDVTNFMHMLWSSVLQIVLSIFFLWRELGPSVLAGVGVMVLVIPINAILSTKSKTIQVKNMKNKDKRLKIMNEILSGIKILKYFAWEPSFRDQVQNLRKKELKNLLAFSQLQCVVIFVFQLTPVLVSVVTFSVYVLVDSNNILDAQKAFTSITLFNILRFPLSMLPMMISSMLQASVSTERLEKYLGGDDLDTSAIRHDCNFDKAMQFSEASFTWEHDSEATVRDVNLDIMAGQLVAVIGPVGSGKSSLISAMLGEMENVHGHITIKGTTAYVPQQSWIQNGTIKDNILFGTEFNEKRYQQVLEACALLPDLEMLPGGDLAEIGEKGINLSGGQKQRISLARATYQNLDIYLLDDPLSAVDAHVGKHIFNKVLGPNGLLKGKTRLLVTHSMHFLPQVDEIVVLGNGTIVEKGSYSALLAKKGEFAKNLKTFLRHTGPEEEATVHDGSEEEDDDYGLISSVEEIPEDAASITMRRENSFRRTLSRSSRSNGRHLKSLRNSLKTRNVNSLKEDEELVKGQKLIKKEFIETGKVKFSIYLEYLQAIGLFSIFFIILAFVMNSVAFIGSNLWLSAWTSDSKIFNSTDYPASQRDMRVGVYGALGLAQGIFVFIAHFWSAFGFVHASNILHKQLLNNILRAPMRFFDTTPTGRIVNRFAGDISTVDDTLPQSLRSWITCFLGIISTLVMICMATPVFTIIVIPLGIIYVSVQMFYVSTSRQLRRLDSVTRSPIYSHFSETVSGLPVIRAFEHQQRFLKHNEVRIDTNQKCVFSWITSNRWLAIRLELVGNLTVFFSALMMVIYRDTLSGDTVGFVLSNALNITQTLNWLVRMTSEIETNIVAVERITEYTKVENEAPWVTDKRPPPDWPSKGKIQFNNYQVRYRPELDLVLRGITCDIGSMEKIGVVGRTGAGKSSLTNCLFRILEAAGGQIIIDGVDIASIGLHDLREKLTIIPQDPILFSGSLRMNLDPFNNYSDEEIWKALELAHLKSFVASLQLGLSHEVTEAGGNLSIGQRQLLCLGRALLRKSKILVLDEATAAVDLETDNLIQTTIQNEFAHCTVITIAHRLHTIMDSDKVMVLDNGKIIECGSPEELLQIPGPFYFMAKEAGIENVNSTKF
Method: (§1) The medium was replaced every second day.
(§2) All these studies were conducted by following similar procedures. […] Then, HBSS was aspirated from both sides.
(§3) The flow rate was 0.3 mL/min.

[10] = system: P-gp, BCRP, and MRP2 efflux transporters; assay: as above; type: in vitro ADME, human; settings: 5 μM; ER ≥ 2 suggests active transport
Method: as §1, §2, §3

[11] = Bidirectional transport assay across MRP2/BCRP double KO Caco-2 monolayers; settings: human
Method: as §4

[12] = Bidirectional transport assay across P-gp/MRP2 double KO Caco-2 monolayers; settings: human, pH 7.4
Method: as §4

[13] = Bidirectional transport assay, P-gp single- and double-KO cells taken together; type: in vitro ADME; settings: human, pH 7.4, 5 μM substrate
Method: as §1, §2, §3

Method for Caco-2 WT cells: as §4
Method for Caco^MRP2−/− cells: as §4
Method for Caco^Pgp−/−BCRP−/− cells: as §4
Method for Caco^Pgp−/−MRP2−/− cells: as §4

- Papp A-to-B (Caco^BCRP−/− cells [1]): 2.14 ± 0.08 ×10^−6cm/s
- Papp B-to-A (Caco^BCRP−/− cells [1]): 10.63 ± 0.96 ×10^−6cm/s
- Papp A-to-B [2]: 3.48 ± 0.51 ×10^−6cm/s
- Papp B-to-A [2]: 3.05 ± 0.80 ×10^−6cm/s
- Papp A-to-B (Caco^MRP2−/− cells): 2.33 ± 0.62 ×10^−6cm/s
- Papp B-to-A (Caco^MRP2−/− cells): 1.10 ± 0.13 ×10^−6cm/s
- Papp A-to-B (Caco^Pgp−/−BCRP−/− cells): 2.02 ± 0.20 ×10^−6cm/s
- Papp B-to-A (Caco^Pgp−/−BCRP−/− cells): 9.42 ± 0.55 ×10^−6cm/s
- Papp A-to-B (Caco^Pgp−/−MRP2−/− cells): 2.41 ± 0.55 ×10^−6cm/s
- Papp B-to-A (Caco^Pgp−/−MRP2−/− cells): 1.64 ± 0.46 ×10^−6cm/s
- Papp A-to-B (Caco^Pgp−/− cells): 1.94 ± 0.10 ×10^−6cm/s
- Papp B-to-A (Caco^Pgp−/− cells): 11.95 ± 1.61 ×10^−6cm/s
- Papp A-to-B (Caco-2 WT cells): 1.05 ± 0.34 ×10^−6cm/s
- Papp B-to-A (Caco-2 WT cells): 8.25 ± 0.63 ×10^−6cm/s
Compound: 5-(and-6)-carboxy-2′,7′-dichlorofluorescein [CDCF]

Compound: COc1ccc2c3c([nH]c2c1)[C@H](C=C(C)C)N1C(=O)[C@@H]2CCCN2C(=O)[C@@H]1C3 [fumitremorgin C]
- Inhibition of the BCRP transporter (BCRP transporter): selectively inhibited
- Inhibition of P-gp (P-gp): only partially inhibited

- Papp B→A at 1 h, 5 μM ([3]; pH 7.4): 14.7 ± 0.99 ×10⁻⁶ cm/s
- efflux ratio at 1 h, 5 μM ([3]; pH 7.4): 3.25 ± 0.31
- Papp A→B at 1 h, 5 μM ([3]; pH 7.4, Papp A-to-B, Caco^MRP2−/−, 5 μM substrate, 1 h, 37°C, HBSS pH 7.4, n = 3): 4.53 ± 0.26 ×10⁻⁶ cm/s
- Efflux ratio (Caco^BCRP−/− cells [4]): 2.25 ±0.34
- Papp A→B at 1 h, 5 μM ([5]; pH 7.4): 2.21 ± 0.41 ×10⁻⁶ cm/s
- Papp B→A at 1 h, 5 μM ([5]; pH 7.4): 4.88 ± 0.17 ×10⁻⁶ cm/s
- efflux ratio at 1 h, 5 μM ([5]; pH 7.4, Efflux ratio, Caco^BCRP−/−, 5 μM substrate, n = 3): ~2
- Papp A→B at 1 h, 5 μM [6]: 4.17 ± 0.17 ×10⁻⁶ cm/s
- Papp B→A at 1 h, 5 μM [6]: 2.18 ± 0.43 ×10⁻⁶ cm/s
- efflux ratio at 1 h, 5 μM [6]: 0.41 ± 0.04
- Papp A→B at 1 h, 5 μM ([7]; Caco-2, pH 7.4): 2.78 ± 0.39 ×10⁻⁶ cm/s
- Papp B→A at 1 h, 5 μM ([7]; Caco-2, pH 7.4): 12.2 ± 1.86 ×10⁻⁶ cm/s
- efflux ratio at 1 h, 5 μM ([7]; Caco-2, pH 7.4, Efflux ratio, WT Caco-2, 5 μM substrate, Papp(B-to-A)/Papp(A-to-B), n = 3): 4.47 ± 1.19
- Papp A→B at 1 h, 5 μM [8]: 7.54 ± 0.24 ×10⁻⁶ cm/s
- Papp B→A at 1 h, 5 μM [8]: 3.22 ± 0.62 ×10⁻⁶ cm/s
- efflux ratio at 1 h, 5 μM [8]: 0.43 ± 0.09
- Substrate of MRP2 (conclusion from ERs in KO cells) [9]: cannot mediate
- Efflux transporter substrate identification (conclusion from ERs in WT and KO cells) [10]: P-gp was the main transporter
- Papp B→A at 1 h, 5 μM ([11]; pH 7.4): 17.9 ± 1.89 ×10⁻⁶ cm/s
- efflux ratio at 1 h, 5 μM ([11]; pH 7.4): 6.41 ± 0.35
- Papp A→B at 1 h, 5 μM ([11]; pH 7.4, Papp A-to-B, Caco^MRP2−/−BCRP−/−, 5 μM substrate, 1 h, 37°C, HBSS pH 7.4, n = 3): 2.79 ± 0.28 ×10⁻⁶ cm/s
- Papp A→B at 1 h, 5 μM [12]: 4.23 ± 0.22 ×10⁻⁶ cm/s
- Papp B→A at 1 h, 5 μM [12]: 4.51 ± 0.63 ×10⁻⁶ cm/s
- efflux ratio at 1 h, 5 μM [12]: 1.07 ± 0.42
- efflux ratio at 1 h, 5 μM [13]: ~1
Compound: Cc1c(O)cccc1C(=O)N[C@@H](CSc1ccccc1)[C@H](O)CN1C[C@H]2CCCC[C@H]2C[C@H]1C(=O)NC(C)(C)C [Nelfinavir]
